The text below walks through data of US20100062437A1, “PARALLEL PROFILLING OF SIGNALING PATHWAYS” (priority 2007, published 2010).

The test system of one assay is ATR. Briefly: ATR mRNA quantity in DLD-1 cells in response to ouabain. In kind it is cell-based, human. An excerpt:
(§1) hSMG1 is a member of the PIKK family, which also includes ATM, ATR, mTOR, and DNA-PK (Therien and Blostein, 2000). These large, structurally homologous, proteins have been implicated as participants in the cellular response to various forms of stress.

In the next assay the test system is mTOR. The assay can be described thus: mTOR mRNA quantity in DLD-1 cells in response to ouabain. In kind it is cell-based, human.
Text: as §1

Assay [1] concerns hSMG1 transcription sites. The assay can be described thus: Fluorescence in situ hybridization (FISH) of active hSMG1 transcription sites in DLD-1 cells. In kind it is cell-based, human. The following applies: ouabain 10 μM for 1 hr, untreated 0.19. From the text:
The branched chain DNA assay affords an averaged expression response from a cell population. The magnitude of this response is a function of actin mRNA levels, a baseline that furnishes relative, but not absolute, hSMG1 mRNA quantity. Since actin mRNA levels may be susceptible to influence by these drugs as well, fluorescence in situ hybridization was employed to directly visualize hSMG1 mRNA transcription sites in the DLD-1 cell line. […] Furthermore, these enhanced levels of mRNA synthesis rate and quantity directly translate into higher proteins levels, as exemplified by the ouabain-induced 2.7-fold increase in hSMG1 protein in DLD-1 cells (FIG. 2).
Fluorescence in situ hybridization (FISH). Previously described oligomer probes, each 50 bases in length from four regions of the hSMG1 gene, were designed with OLIGO software from Molecular Biology Insights, Inc., and synthesized on an Applied Biosystems automated DNA/RNA synthesizer (Capodieci et al., 2005). The activated fluorophore cy3 (Amersham) was used to label the probes. DLD-1 cells were seeded onto gelatinized coverslips, incubated as described above for 24 hr, and then treated with ouabain (10 μm) for 1 hr. […] The FISH specimens were imaged and analyzed as previously described (Capodieci et al., 2005).

In a further assay the test system is DNAPK. Briefly: DNAPK mRNA quantity in DLD-1 cells in response to ouabain. Format: cell-based, human.
Text: as §1

In the next assay the test system is ATM. Briefly: ATM mRNA quantity in DLD-1 cells in response to ouabain. In kind it is cell-based, human.
Text: as §1

The test system of the next assay is hSMG1 protein. Briefly: hSMG1 protein quantitation by Western blot in DLD-1 cells. The following applies: 10 μM ouabain for 24 hr. In kind it is cell-based, human. As to the method: hSMG1 Protein Quantitation. DLD-1 cells were exposed to 10 μM ouabain for 24 hr and subsequently lysed. Total protein concentration, following centrifugation, was determined using the BCA Protein Assay Kit (Pierce). Following electrophoresis, the membrane was divided and the individual halves separately exposed to the SMG1 antibody BL1657 (Bethyl Laboratories) and the actin antibody A5441 (Sigma) and then subsequently incubated with the appropriate horseradish peroxidase conjugated secondary antibodies. The membranes were treated with the Pierce Supersignal West Pico chemiluminescent reagent and quantified.

The subject of assay [2] is hSMG1 mRNA. Briefly: Drug library screen, hSMG1 mRNA quantitation by branched DNA assay in HeLa cells. Format: cell-based, human. On the procedure:
HeLa cells were separately exposed to each drug from the drug library in a multiwell plate format. After 24 h, hSMG mRNA was captured and quantified using a branched DNA assay (Collins et al., 1997). Actin mRNA levels were simultaneously measured from the same cell lysate in order to compensate for differences in viable cell number as a consequence of drug treatment. […] Both agents bind to and inhibit the Na^+/K^+-ATPase (Therien and Blostein, 2000).
Drug Library Screen and hSMG1 message quantitation. The QuantiGene® Explore kit (Panomics, Inc.) was used to furnish a direct quantitation of mRNA in a 96 well format. The “housekeeper gene” […] was selected as an intracellular control. Specific oligonucleotide probes for hSMG1, including capture extenders (CE), label extenders (LE) and blocking probes (BL) were designed with the Panomics ProbeDesigner™ software and synthesized. Prior to drug exposure, HeLa cells were incubated for 24 hr in 150 μL Dulbecco's modified Eagle Medium (DMEM) with 10% fetal bovine serum (FBS) and DLD-1 cells were incubated for 24 hr in 150 μL MEM with 1 mM MEM nonessential amino acids, 1 mM sodium pyrurate, 0.15% sodium bicarbonate, and 10% FBS. Cells were then exposed to various concentrations of the drugs for 24 hr and then lysed via incubation in 75 μL lysis buffer (QuantiGene® Explore kit) at 53° C. for 1 hr. Capture of hSMG1 and actin mRNA was conducted according to the manufacturers instructions and quantification performed using a microplate luminometer.

Another assay concerns DLD-1 cells. Briefly: Degradation of long-lived proteins (proteolysis) in DLD-1 cells. In kind it is cell-based, human. An excerpt:
The Na^+/K^+-ATPase is the common target of ouabain, digoxin, and digitoxin (Buckalew, 2005). Na^+/K^+-ATPase inhibition induces a plethora of effects including (a) disruption of the Na^+/K^+ gradient and consequent increase in intracellular [Ca^2+] (Grapengiesser et al., 1993), (b) interference with amino acid uptake (Johnson et al., 1986), and (c) the production of reactive oxygen species resulting in oxidative damage to proteins and organelles (Xie et al., 1999). Each of these individual events is either sufficient or necessary to promote autophagy. The latter maintains cell viability by furnishing essential biochemical building blocks via degradation of existing proteins and organelles in lysosomes (Levine and Klionsky, 2004). However, the effect of ouabain, or its cardiotonic congeners, on autophagy has not been examined. The later was explored by measuring rates of degradation of long-lived proteins, the preferential substrate for lysosomal degradation, in DLD-1 cells. […] The latter implies that macroautophagy, the degradation of sequestered material in a vesicular-based fashion, along with other types of autophagy (i.e. chaperone-mediated autophagy and microautophagy) contribute to ouabain-induced proteolysis.
Intracellular Protein Turnover. Rates of protein synthesis were measured in confluent cells as the incorporation of [3H]leucine [10 μCi/ml (1 Ci=37 GBq)] into acid-insoluble material in the presence of an excess (2.8 mM) of unlabeled leucine in the medium (to minimize differences due to alteration of amino acid transport and/or intracellular amino acid pool sizes). 28 To measure degradation of long-lived proteins, confluent cells were labeled with [3H]leucine (2 μCi/ml) for 48 h at 37° C. and then extensively washed and maintained in complete or amino acid depleted medium containing an excess of unlabeled leucine. Aliquots of the medium taken at different times were precipitated with trichloroacetic acid, and proteolysis was calculated as the amount of acid precipitable radioactivity converted into acid soluble at each time (Auteri et al., 1983). Where indicated, 20 mM NH4Cl and 100 μM leupeptine or 10 mM 3-methyladenine were added during the chase to block lysosomal proteolysis or macroautophagy, respectively.

For assay [3], the system named is hSMG1 mRNA. Briefly: hSMG1 over-expression response to ouabain in other cell lines. Format: cell-based.
For assay [4], the system named is hSMG1 mRNA. Briefly: hSMG1 mRNA quantitation (branched DNA assay) in DLD-1 cells exposed to ouabain. Format: cell-based, human.
Experimental: The QuantiGene® Explore kit (Panomics, Inc.) was used to furnish a direct quantitation of mRNA in a 96 well format. The “housekeeper gene” 13-actin was selected as an intracellular control. Specific oligonucleotide probes for hSMG1, including capture extenders (CE), label extenders (LE) and blocking probes (BL) were designed with the Panomics ProbeDesigner™ software and synthesized. Prior to drug exposure, HeLa cells were incubated for 24 hr in 150 μL Dulbecco's modified Eagle Medium (DMEM) with 10% fetal bovine serum (FBS) and DLD-1 cells were incubated for 24 hr in 150 μL MEM with 1 mM MEM nonessential amino acids, 1 mM sodium pyrurate, 0.15% sodium bicarbonate, and 10% FBS. Cells were then exposed to various concentrations of the drugs for 24 hr and then lysed via incubation in 75 μL lysis buffer (QuantiGene® Explore kit) at 53° C. for 1 hr. Capture of hSMG1 and actin mRNA was conducted according to the manufacturers instructions and quantification performed using a microplate luminometer.
The subject of another assay is HEK293 cells. The assay can be described thus: Rate of proteolysis in HEK293 cells after hSMG1 RNAi knockdown. The following applies: RNAi knockdown of hSMG1, lysosomal inhibitor added. In kind it is cell-based, human. From the text:
Autophagy is the quintessential cellular response to limited nutrient supplies and/or the presence of damaged cytoplasmic components (Levine and Yuan, 2005). The corresponding ouabain-induced overexpression of hSMG1 may be a biochemical mechanism by which metabolic homeostasis is re-established, either by inhibiting or promoting autophagy. The possible influence of hSMG1 on autophagy was examined via a series of RNAi knockdown experiments. […] Consequently, all knockdown experiments were performed using the 293 cell line. Following RNAi knockdown, cells were either exposed to or deprived of amino acids and the effect on the rate of proteolysis noted. […] Protein degradation is enhanced in RNAi knockdown cells versus their unaltered counterparts (FIG. 3a). […]
Intracellular Protein Turnover. Rates of protein synthesis were measured in confluent cells as the incorporation of [3H]leucine [10 μCi/ml (1 Ci=37 GBq)] into acid-insoluble material in the presence of an excess (2.8 mM) of unlabeled leucine in the medium (to minimize differences due to alteration of amino acid transport and/or intracellular amino acid pool sizes). […] Aliquots of the medium taken at different times were precipitated with trichloroacetic acid, and proteolysis was calculated as the amount of acid precipitable radioactivity converted into acid soluble at each time (Auteri et al., 1983). […]

In the case of `C[C@@H]1O[C@@H](O[C@H]2C[C@@H](O)[C@]3(CO)[C@H]4[C@H](O)C[C@]5(C)[C@@H](C6=CC(=O)OC6)CC[C@]5(O)[C@@H]4CC[C@]3(O)C2)[C@H](O)[C@H](O)[C@H]1O` [Ouabain, ouabain], the “change in ATR mRNA quantity” value in the assay with ATR came out at 0.7±0.1 fold. For the same compound, in the assay on mTOR, the “change in mTOR mRNA quantity” value was 1.3±0.1 fold. In [1], the “fraction of cells displaying active hSMG1 transcription sites” value amounted to 0.63±0.1. Further, the “change in DNAPK mRNA quantity” value with DNAPK is 0.8±0.1 fold. Besides, the “change in ATM mRNA quantity” value with ATM stood at 1.1±0.1 fold. In addition, the “increase in hSMG1 protein” value in the assay with hSMG1 protein turned out to be 2.7 fold. For the same compound, the “enhancement of hSMG1 expression levels” value in the assay with hSMG1 mRNA [2] was found to be 2 fold. For the same compound, the “effect on proteolysis (degradation of long-lived proteins)” value in the assay with DLD-1 cells (ouabain 10 μM, compared with amino acid starvation) is “dramatically enhances proteolysis”. Moreover, the hSMG1 over-expression response in the assay on hSMG1 mRNA [3] (786-0 renal carcinoma, ouabain 10 μM) is given as 6.1±0.4 fold; with hSMG1 mRNA [3] (GM02037 wild type fibroblast, ouabain 10 μM), 3.4±0.1 fold; with hSMG1 mRNA [3] (HEK 293, ouabain 10 μM) it was 3.3±0.2 fold; in the assay with hSMG1 mRNA [3] (PC3 prostate carcinoma, ouabain 10 μM), 2.7±0.2 fold; with hSMG1 mRNA [3] (U87 glioblastoma, ouabain 10 μM), 1.4±0.1 fold; in the assay on hSMG1 mRNA [3] (primary astrocyte, ouabain 10 μM), 5.4±0.1 fold. For the same compound, in the assay on hSMG1 mRNA [4] (DLD-1 adenocarcinoma, ouabain 10 μM), the hSMG1 over-expression response came out at 4.3±0.1 fold. In the assay on hSMG1 mRNA [4] (DLD-1 cells in response to ouabain), the “enhancement in hSMG1 mRNA quantity” value amounted to 4.3±0.1. In the assay with hSMG1 mRNA [4] (DLD-1 cells, ouabain 10 μM alone, mean ± S.D. of three wells), the “hSMG1 Expression relative to untreated cells” value turned out to be 4.3 ± 0.1.

`Cl.N` [ammonium chloride]: in the assay with DLD-1 cells (ouabain treated, 20 mM NH4Cl and 100 μM leupeptine or 10 mM 3-methyladenine during the chase), the “effect on ouabain-induced increase in protein degradation” value is reported as “completely blocked”. The “effect on protein degradation caused by hSMG1 knockdown” value in the assay on HEK293 cells was “only partly mitigates the effect of hSMG1 knockdown on protein degradation”.
